# Measured values: ChEMBL document CHEMBL5107972 (RSC Med Chem, 2022)
# Assays:
# Format in all cases: functional
# [1] = tested on: Mycobacterium tuberculosis; assay: Antitubercular activity against clinical isolate ethambutol-resistant Mycobacterium tuberculosis ATCC 35837 assessed as inhibition of bacterial growth incubated for 7 days by Presto blue resazurin microtiter plate assay; conditions: ATCC 35837, 168 h, time 7 day
# [2] = tested on: Mycobacterium tuberculosis; assay: Antitubercular activity against clinical isolate streptomycin-resistant Mycobacterium tuberculosis ATCC 35820 assessed as inhibition of bacterial growth incubated for 7 days by Presto blue resazurin microtiter plate assay; conditions: ATCC 35820, 168 h, time 7 day
# [3] = tested on: Mycobacterium tuberculosis; assay: Antitubercular activity against clinical isolate isoniazid-resistant Mycobacterium tuberculosis ATCC 35822 assessed as inhibition of bacterial growth incubated for 7 days by Presto blue resazurin microtiter plate assay; conditions: ATCC 35822, 168 h, time 7 day
# [4] = tested on: Mycobacterium tuberculosis; assay: Antitubercular activity against clinical isolate rifampicin-resistant Mycobacterium tuberculosis ATCC 35838 assessed as inhibition of bacterial growth incubated for 7 days by Presto blue resazurin microtiter plate assay; conditions: ATCC 35838, 168 h, time 7 day
Structure (SMILES),MIC [1],MIC [2],MIC [3],MIC [4]
CC[C@@H](CO)NCCN[C@@H](CC)CO [ETHAMBUTOL],32 µg/mL,2 µg/mL,4 µg/mL,2 µg/mL
NNC(=O)c1ccncc1 [ISONIAZID],0.03 µg/mL,0.03 µg/mL,> 64 µg/mL,0.03 µg/mL
CO[C@H]1/C=C/O[C@@]2(C)Oc3c(C)c(O)c4c(O)c(c(/C=N/N5CCN(C)CC5)c(O)c4c3C2=O)NC(=O)/C(C)=C\C=C\[C@H](C)[C@H](O)[C@@H](C)[C@@H](O)[C@@H](C)[C@H](OC(C)=O)[C@@H]1C [RIFAMPIN],0.03 µg/mL,0.03 µg/mL,0.03 µg/mL,64 µg/mL
CN[C@@H]1[C@H](O[C@H]2[C@H](O[C@H]3[C@H](O)[C@@H](O)[C@H](N=C(N)N)[C@@H](O)[C@@H]3N=C(N)N)O[C@@H](C)[C@]2(O)C=O)O[C@@H](CO)[C@H](O)[C@H]1O [STREPTOMYCIN],1 µg/mL,> 64 µg/mL,1 µg/mL,1 µg/mL
